In brackets after ≈: the same amount, converted by molar mass. Read-outs that look alike come from different tables or passages of the source.
How the values were obtained:
S. pyogenes GC 4563 = experiment: MIC, broth microdilution; settings: Streptococcus pyogenes
Staph. aureus Smith = experiment: In vivo activity (oral, iv; ED50) against Staph. aureus Smith in mice
Method: Representative examples of compounds of Formula I were tested for the oral efficacy using S. aureus Smith in mice.

E. faecalis GC 2265 = experiment: MIC, broth microdilution; settings: Enterococcus faecalis
E. faecium GC 2243 = experiment: MIC, broth microdilution; settings: Enterococcus faecium
S. pneumoniae+ GC 4465 = experiment: MIC, broth microdilution; settings: Streptococcus pneumoniae
S. aureus GC 6335 = experiment: MIC, broth microdilution; settings: Staphylococcus aureus
S. aureus GC 4536 = experiment: MIC, broth microdilution; settings: Staphylococcus aureus
E. coli GC 2270 = experiment: MIC, broth microdilution; settings: Escherichia coli
E. coli = experiment: Range of MIC for E. coli strains; settings: Escherichia coli
S. aureus GC 6469 = experiment: MIC, broth microdilution; settings: Staphylococcus aureus
S. aureus GC 2216 = experiment: MIC, broth microdilution; settings: Staphylococcus aureus
S. agalactiae GC 4564 = experiment: MIC, broth microdilution; settings: Streptococcus agalactiae
E. coli GC 2232 = experiment: MIC, broth microdilution; settings: Escherichia coli
Method: Antimicrobial susceptibility testing. The in vitro activities of the antibiotics are determined by the broth microdilution method as recommended by the National Committee for Clinical Laboratory Standards (NCCLS) (1). Mueller-Hinton II broth (MHBII)(BBL Cockeysville, Md.) is the medium employed in the testing procedures. Microtiter plates containing serial dilutions of each antimicrobial agent are inoculated with each organism to yield the appropriate density (10^5 CFU/ml) in a 100 μl final volume. The plates are incubated for 18-22 hours at 35° C. in ambient air.
Representative compounds were first incubated in mouse serum for an hour prior to the in vitro testing against a panel of selected gram-positive and gram-negative bacteria strains. All compounds were also pre-incubated in water for an hour prior to testing as control. Representative compounds of Formula I were incubated in human serum prior to MIC determination.

E. coli GC 1073 = experiment: MIC, broth microdilution; settings: Escherichia coli
P. aeruginosa GC 2214 = experiment: MIC, broth microdilution; settings: Pseudomonas aeruginosa
E. coli GC 4559 = experiment: MIC, broth microdilution; settings: Escherichia coli
E. coli GC 3226 = experiment: MIC, broth microdilution; settings: Escherichia coli
E. faecalis GC 2242 = experiment: MIC, broth microdilution; settings: Enterococcus faecalis
c. albicans GC 3066 = experiment: MIC, broth microdilution
E. coli GC 2271 = experiment: MIC, broth microdilution; settings: Escherichia coli

Structure (SMILES): CC(C)C(=O)OCOC(=O)N(CC(=O)Nc1cc(N(C)C)c2c(c1O)C(=O)C1=C(O)[C@]3(O)C(=O)C(C(N)=O)=C(O)[C@@H](N(C)C)[C@@H]3C[C@@H]1C2)C(C)(C)C [Example 45, ({[(2-{[(5aR,6aS,7S,10aS)-9-(aminocarbonyl)-4,7-bis(dimethylamino)-1,8,10a,11-tetrahydroxy-10,12-dioxo-5,5a,6,6a,7,10,10a,12-octahydrotetracen-2-yl]amino}-2-oxoethyl)(tert-butyl)amino]carbonyl}oxy)methyl 2-methylpropanoate]
- MIC (S. pyogenes GC 4563; GC4563, read-out: MINIMAL INHIBITORY CONCENTRATION MIC, pre-incubated in Human Serum): 0.25 µg/mL (≈ 0.343 µM)
- MIC (S. pyogenes GC 4563; GC4563, read-out: MINIMAL INHIBITORY CONCENTRATION MIC, pre-incubated in Mouse Serum): 0.25 µg/mL (≈ 0.343 µM)
- MIC (S. pyogenes GC 4563; GC4563, read-out: MINIMAL INHIBITORY CONCENTRATION MIC, pre-incubated in Water): 0.5 µg/mL (≈ 0.685 µM)
- ED50 (Staph. aureus Smith; Staphylococcus aureus, in Mus musculus, iv, read-out: ED50 SIV (Staph aureus Smith)): 0.66 mg/kg
- ED50 (Staph. aureus Smith; Staphylococcus aureus, in Mus musculus, po, read-out: ED50 SOD (Staph aureus Smith)): 5.9 mg/kg
- ED50 (Staph. aureus Smith; Staphylococcus aureus, in Mus musculus, po, read-out: ED50 Staph Smith SOD): 5.9 mg/kg
- ED50 (Staph. aureus Smith; iv, read-out: ED50 Staph Smith SIV): 0.66 mg/kg
- MIC (E. faecalis GC 2265; GC2265, read-out: MINIMAL INHIBITORY CONCENTRATION MIC, pre-incubated in Human Serum): 1 µg/mL (≈ 1.37 µM)
- MIC (E. faecalis GC 2265; GC2265, read-out: MINIMAL INHIBITORY CONCENTRATION MIC, pre-incubated in Mouse Serum): 0.5 µg/mL (≈ 0.685 µM)
- MIC (E. faecalis GC 2265; GC2265, read-out: MINIMAL INHIBITORY CONCENTRATION MIC, pre-incubated in Water): 4 µg/mL (≈ 5.48 µM)
- MIC (E. faecium GC 2243; GC2243, read-out: MINIMAL INHIBITORY CONCENTRATION MIC, pre-incubated in Human Serum): 1 µg/mL (≈ 1.37 µM)
- MIC (E. faecium GC 2243; GC2243, read-out: MINIMAL INHIBITORY CONCENTRATION MIC, pre-incubated in Mouse Serum): 0.5 µg/mL (≈ 0.685 µM)
- MIC (E. faecium GC 2243; GC2243, read-out: MINIMAL INHIBITORY CONCENTRATION MIC, pre-incubated in Water): 2 µg/mL (≈ 2.74 µM)
- MIC (S. pneumoniae+ GC 4465; read-out: MINIMAL INHIBITORY CONCENTRATION MIC, pre-incubated in Human Serum): 2 µg/mL (≈ 2.74 µM)
- MIC (S. pneumoniae+ GC 4465; read-out: MINIMAL INHIBITORY CONCENTRATION MIC, pre-incubated in Mouse Serum): 2 µg/mL (≈ 2.74 µM)
- MIC (S. pneumoniae+ GC 4465; read-out: MINIMAL INHIBITORY CONCENTRATION MIC, pre-incubated in Water): 4 µg/mL (≈ 5.48 µM)
- MIC (S. aureus GC 6335; GC6335, read-out: MINIMAL INHIBITORY CONCENTRATION MIC, pre-incubated in Human Serum): 0.5 µg/mL (≈ 0.685 µM)
- MIC (S. aureus GC 6335; GC6335, read-out: MINIMAL INHIBITORY CONCENTRATION MIC, pre-incubated in Mouse Serum): 1 µg/mL (≈ 1.37 µM)
- MIC (S. aureus GC 6335; GC6335, read-out: MINIMAL INHIBITORY CONCENTRATION MIC, pre-incubated in Water): 2 µg/mL (≈ 2.74 µM)
- MIC (S. aureus GC 4536; GC4536, read-out: MINIMAL INHIBITORY CONCENTRATION MIC, pre-incubated in Human Serum): 0.5 µg/mL (≈ 0.685 µM)
- MIC (S. aureus GC 4536; GC4536, read-out: MINIMAL INHIBITORY CONCENTRATION MIC, pre-incubated in Mouse Serum): 0.5 µg/mL (≈ 0.685 µM)
- MIC (S. aureus GC 4536; GC4536, read-out: MINIMAL INHIBITORY CONCENTRATION MIC, pre-incubated in Water): 1 µg/mL (≈ 1.37 µM)
- MIC (E. coli GC 2270; GC2270, read-out: MINIMAL INHIBITORY CONCENTRATION MIC, pre-incubated in Human Serum): 4 µg/mL (≈ 5.48 µM)
- MIC (E. coli GC 2270; GC2270, read-out: MINIMAL INHIBITORY CONCENTRATION MIC, pre-incubated in Mouse Serum): 0.5 µg/mL (≈ 0.685 µM)
- MIC (E. coli GC 2270; GC2270, read-out: MINIMAL INHIBITORY CONCENTRATION MIC, pre-incubated in Water): 32 µg/mL (≈ 43.8 µM)
- MIC (E. coli; 20 h, read-out: Range of MIC, E. coli (Mouse Serum)): 0.5 to 2 µg/mL (≈ 0.685 to 2.74 µM)
- MIC (E. coli; read-out: Minimum inhibitory concentration (MIC), E. coli (Human Serum)): 4 to 16 µg/mL (≈ 5.48 to 21.9 µM)
- MIC (S. aureus GC 6469; GC6469, read-out: MINIMAL INHIBITORY CONCENTRATION MIC, pre-incubated in Human Serum): 0.5 µg/mL (≈ 0.685 µM)
- MIC (S. aureus GC 6469; GC6469, read-out: MINIMAL INHIBITORY CONCENTRATION MIC, pre-incubated in Mouse Serum): 1 µg/mL (≈ 1.37 µM)
- MIC (S. aureus GC 6469; GC6469, read-out: MINIMAL INHIBITORY CONCENTRATION MIC, pre-incubated in Water): 1 µg/mL (≈ 1.37 µM)
- MIC (S. aureus GC 2216; GC2216, read-out: MINIMAL INHIBITORY CONCENTRATION MIC, pre-incubated in Human Serum): 0.5 µg/mL (≈ 0.685 µM)
- MIC (S. aureus GC 2216; GC2216, read-out: MINIMAL INHIBITORY CONCENTRATION MIC, pre-incubated in Mouse Serum): 1 µg/mL (≈ 1.37 µM)
- MIC (S. aureus GC 2216; GC2216, read-out: MINIMAL INHIBITORY CONCENTRATION MIC, pre-incubated in Water): 1 µg/mL (≈ 1.37 µM)
- MIC (S. agalactiae GC 4564; GC4564, read-out: MINIMAL INHIBITORY CONCENTRATION MIC, pre-incubated in Human Serum): 0.5 µg/mL (≈ 0.685 µM)
- MIC (S. agalactiae GC 4564; GC4564, read-out: MINIMAL INHIBITORY CONCENTRATION MIC, pre-incubated in Mouse Serum): 0.25 µg/mL (≈ 0.343 µM)
- MIC (S. agalactiae GC 4564; GC4564, read-out: MINIMAL INHIBITORY CONCENTRATION MIC, pre-incubated in Water): 0.5 µg/mL (≈ 0.685 µM)
- MIC (E. coli GC 2232; GC2232, read-out: MINIMAL INHIBITORY CONCENTRATION MIC, pre-incubated in Human Serum): 4 µg/mL (≈ 5.48 µM)
- MIC (E. coli GC 2232; GC2232, read-out: MINIMAL INHIBITORY CONCENTRATION MIC, pre-incubated in Mouse Serum): 1 µg/mL (≈ 1.37 µM)
- MIC (E. coli GC 2232; GC2232, read-out: MINIMAL INHIBITORY CONCENTRATION MIC, pre-incubated in Water): 16 µg/mL (≈ 21.9 µM)
- MIC (E. coli GC 1073; GC1073, read-out: MINIMAL INHIBITORY CONCENTRATION MIC, pre-incubated in Human Serum): 8 µg/mL (≈ 11 µM)
- MIC (E. coli GC 1073; GC1073, read-out: MINIMAL INHIBITORY CONCENTRATION MIC, pre-incubated in Mouse Serum): 1 µg/mL (≈ 1.37 µM)
- MIC (E. coli GC 1073; GC1073, read-out: MINIMAL INHIBITORY CONCENTRATION MIC, pre-incubated in Water): 64 µg/mL (≈ 87.7 µM)
- MIC (P. aeruginosa GC 2214; GC2214, read-out: MINIMAL INHIBITORY CONCENTRATION MIC, pre-incubated in Human Serum): > 64 µg/mL
- MIC (P. aeruginosa GC 2214; GC2214, read-out: MINIMAL INHIBITORY CONCENTRATION MIC, pre-incubated in Mouse Serum): 16 µg/mL (≈ 21.9 µM)
- MIC (P. aeruginosa GC 2214; GC2214, read-out: MINIMAL INHIBITORY CONCENTRATION MIC, pre-incubated in Water): > 64 µg/mL
- MIC (E. coli GC 4559; GC4559, read-out: MINIMAL INHIBITORY CONCENTRATION MIC, pre-incubated in Human Serum): 8 µg/mL (≈ 11 µM)
- MIC (E. coli GC 4559; GC4559, read-out: MINIMAL INHIBITORY CONCENTRATION MIC, pre-incubated in Mouse Serum): 1 µg/mL (≈ 1.37 µM)
- MIC (E. coli GC 4559; GC4559, read-out: MINIMAL INHIBITORY CONCENTRATION MIC, pre-incubated in Water): 64 µg/mL (≈ 87.7 µM)
- MIC (E. coli GC 3226; GC3226, read-out: MINIMAL INHIBITORY CONCENTRATION MIC, pre-incubated in Human Serum): 8 µg/mL (≈ 11 µM)
- MIC (E. coli GC 3226; GC3226, read-out: MINIMAL INHIBITORY CONCENTRATION MIC, pre-incubated in Mouse Serum): 1 µg/mL (≈ 1.37 µM)
- MIC (E. coli GC 3226; GC3226, read-out: MINIMAL INHIBITORY CONCENTRATION MIC, pre-incubated in Water): 64 µg/mL (≈ 87.7 µM)
- MIC (E. faecalis GC 2242; GC2242, read-out: MINIMAL INHIBITORY CONCENTRATION MIC, pre-incubated in Human Serum): 1 µg/mL (≈ 1.37 µM)
- MIC (E. faecalis GC 2242; GC2242, read-out: MINIMAL INHIBITORY CONCENTRATION MIC, pre-incubated in Mouse Serum): 1 µg/mL (≈ 1.37 µM)
- MIC (E. faecalis GC 2242; GC2242, read-out: MINIMAL INHIBITORY CONCENTRATION MIC, pre-incubated in Water): 2 µg/mL (≈ 2.74 µM)
- MIC (c. albicans GC 3066; Candida albicans, GC3066, read-out: MINIMAL INHIBITORY CONCENTRATION MIC): > 64 µg/mL
- MINIMAL INHIBITORY CONCENTRATION MIC (c. albicans GC 3066; pre-incubated in Human Serum): >64 UG/ML
- MINIMAL INHIBITORY CONCENTRATION MIC (c. albicans GC 3066; pre-incubated in Mouse Serum): >64 UG/ML
- MIC (E. coli GC 2271; GC2271, read-out: MINIMAL INHIBITORY CONCENTRATION MIC, pre-incubated in Human Serum): 4 µg/mL (≈ 5.48 µM)
- MIC (E. coli GC 2271; GC2271, read-out: MINIMAL INHIBITORY CONCENTRATION MIC, pre-incubated in Mouse Serum): 0.5 µg/mL (≈ 0.685 µM)
- MIC (E. coli GC 2271; GC2271, read-out: MINIMAL INHIBITORY CONCENTRATION MIC, pre-incubated in Water): 16 µg/mL (≈ 21.9 µM)

— patent US20070049564A1 (Wyeth, priority 2005, published 2007)
